This is an account of results in patent US8071600B2, “Derivatives of 4-piperazin-1-yl-4-benzo[B]thiophene suitable for the treatment of CNS disorders” (Otsuka Pharmaceutical Co., Ltd., priority 2005, dated 2011).

For orientation: Ki means the equilibrium dissociation constant of an inhibitor or competing ligand from its target.

SMILES strings stand for the structures. Counter-ions that a name gives are not always drawn.

Assay [1] has as its target T1, Serotonin 5-HT2A receptor (Rattus norvegicus, UniProt P14842).
T1 construct: from tissue; host or cells: Wistar rat brain, frontal cortex membranes
Nature of the assay: Serotonin 5-HT2A receptor binding assay ([3H]-Ketanserin). The conditions noted are these: Serotonin 5-HT2A receptor binding test, rat frontal cortex membrane, Ki calculated from IC50 by Cheng-Prussoff formula. As for the experimental part:
2) Serotonin 5-HT2A Receptor Binding Assay
The assay was performed according to the method by Leysen J E et al. (Leysen J E, Niemegeers C J E, Van Nueten J M and Laduron P M. [3H] Ketanserin (R 41 468), a selective 3H-ligand for serotonin 2 receptor binding sites. Mol. Pharmacol., 1982, 21: 301-314).
Wistar male rats were decapitated, the brain was retrieved immediately and frontal cortex was taken out. It was homogenized in 0.25 M sucrose of a volume 10 times of the weight of the tissue using a Teflon glass homogenizer, and centrifuged at 4° C., 1,000×g for 10 minutes. The obtained supernatant was transferred to another centrifuge tube and suspended in 0.25 M sucrose of a volume 5 times of the weight of the tissue and the precipitate was centrifuged in the above-described condition. The obtained supernatant was combined with the supernatant obtained above and adjusted to a volume 40 times of the weight of the tissue with 50 mM Tris-hydrochloric acid buffer (pH 7.4), and centrifuged at 4° C., 35,000×g for 10 minutes. The obtained precipitate was suspended again in the above-described buffer of a volume 40 times of the weight of the tissue and centrifuged in the above-described condition. The obtained precipitate was suspended in the above-described buffer of a volume 20 times of the weight of the tissue and preserved by freezing at −85° C. till it was used for binding assay as a membrane specimen.
The binding assay was performed using 40 μl of the membrane specimen, 20 μl of [^3H]-Ketanserin (final concentration 1 to 3 nM), 20 μl of a test drug and 50 mM Tris-hydrochloric acid buffer (pH 7.4) so that the total amount was 200 μl (final dimethylsulfoxide concentration 1%). The reaction was performed at 37° C. for 20 minutes and terminated by conducting suction filtration with a cell harvester on a glass fiber filter plate.
The filter plate made of glass fiber was washed with 50 mM Tris-hydrochloric acid buffer (pH 7.4), and after dried, a microplate liquid scintillation cocktail was added and the radioactivity was measured with a microplate scintillation counter. Radioactivity in the presence of 10 μM spiperone was assumed as nonspecific binding.
(§1) IC50 value was calculated from concentration-dependent reaction using a non-linear analysis program. Ki value was calculated from IC50 value using Cheng-Prussoff formula.

Assay [2] has as its target T2, Dopamine D2 receptor (Rattus norvegicus, UniProt P61169).
T2 construct: from tissue; host or cells: Wistar rat brain, corpus striatum membranes
The assay can be described thus: Dopamine D2 receptor binding assay ([3H]-raclopride). To be noted: Dopamine D2 receptor binding test, rat corpus striatum membrane, Ki calculated from IC50 by Cheng-Prussoff formula. As for the experimental part:
1) Dopamine D2 Receptor Binding Assay
The assay was performed according to the method by Kohler et al. (Kohler C, Hall H, Ogren S O and Gawell L, Specific in vitro and in vivo binding of 3H-raclopride. A potent substituted benzamide drug with high affinity for dopamine D-2 receptors in the rat brain. Biochem. Pharmacol., 1985; 34: 2251-2259).
Wistar male rats were decapitated, the brain was retrieved immediately and corpus striatum was taken out. It was homogenized in 50 mM tris(hydroxymethyl)aminomethane (Tris)-hydrochloric acid buffer (pH 7.4) of a volume 50 times of the weight of the tissue using a homogenizer with a high-speed rotating blade, and centrifuged at 4° C., 48,000×g for 10 minutes. The obtained precipitate was suspended again in the above-described buffer of a volume 50 times of the weight of the tissue and after incubated at 37° C. for 10 minutes, centrifuged in the above-described condition. The obtained precipitate was suspended in 50 mM (Tris)-hydrochloric acid buffer (containing 120 mM NaCl, 5 mM KCl, 2 mM CaCl2, 1 mM MgCl2, pH 7.4) of a volume 25 times of the weight of the tissue and preserved by freezing at −85° C. till it was used for binding assay as a membrane specimen.
The binding assay was performed using 40 μl of the membrane specimen, 20 μl of [^3H]-raclopride (final concentration 1 to 2 nM), 20 μl of a test drug and 50 mM Tris-hydrochloric acid buffer (containing 120 mM NaCl, 5 mM KCl, 2 mM CaCl2, 1 mM MgCl2, pH 7.4) so that the total amount was 200 μl (final dimethylsulfoxide concentration 1%). The reaction was performed at room temperature for 1 hour and terminated by conducting suction filtration with a cell harvester on a glass fiber filter plate. The filter plate made of glass fiber was washed with 50 mM Tris-hydrochloric acid buffer (pH 7.4), and after dried, a microplate liquid scintillation cocktail was added and the radioactivity was measured with a microplate scintillation counter. Radioactivity in the presence of 10 μM (+)-butaclamol hydrochloride was assumed as nonspecific binding.
as §1

T2 sequence (P61169 whole entry): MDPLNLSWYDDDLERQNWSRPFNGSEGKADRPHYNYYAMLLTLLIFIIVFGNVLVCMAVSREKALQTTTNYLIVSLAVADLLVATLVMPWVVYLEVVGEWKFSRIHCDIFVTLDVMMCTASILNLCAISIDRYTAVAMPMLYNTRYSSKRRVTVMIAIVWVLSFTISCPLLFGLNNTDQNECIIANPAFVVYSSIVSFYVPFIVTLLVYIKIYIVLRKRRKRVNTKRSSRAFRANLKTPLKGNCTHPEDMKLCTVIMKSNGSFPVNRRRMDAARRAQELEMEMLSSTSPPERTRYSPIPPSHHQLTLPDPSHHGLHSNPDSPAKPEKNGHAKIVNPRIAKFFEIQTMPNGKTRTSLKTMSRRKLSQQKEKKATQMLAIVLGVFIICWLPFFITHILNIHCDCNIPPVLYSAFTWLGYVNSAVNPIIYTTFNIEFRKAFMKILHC
T1 sequence (P14842 whole entry): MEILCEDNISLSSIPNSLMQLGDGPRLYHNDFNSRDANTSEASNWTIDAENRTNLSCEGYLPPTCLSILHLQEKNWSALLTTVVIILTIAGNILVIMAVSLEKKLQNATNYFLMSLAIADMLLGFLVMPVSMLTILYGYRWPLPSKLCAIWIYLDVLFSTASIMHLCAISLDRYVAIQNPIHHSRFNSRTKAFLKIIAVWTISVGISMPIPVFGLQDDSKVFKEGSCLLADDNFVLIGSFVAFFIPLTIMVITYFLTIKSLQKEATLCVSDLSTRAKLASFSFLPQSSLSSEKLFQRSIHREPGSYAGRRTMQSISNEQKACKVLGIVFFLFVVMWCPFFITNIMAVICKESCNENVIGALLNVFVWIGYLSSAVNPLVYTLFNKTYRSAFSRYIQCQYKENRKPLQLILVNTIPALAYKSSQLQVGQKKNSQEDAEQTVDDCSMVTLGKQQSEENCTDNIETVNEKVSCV

`COC(=O)N(C)c1cc(C)c(OCCCN2CCN(c3cccc4sccc34)CC2)c(OC)c1` [Example 17, methyl N-methyl-{4-[3-(4-benzo[b]thiophen-4-yl-piperazin-1-yl)propoxy]-3-methoxy-5-methylphenyl}carbamate hydrochloride]: the Ki is 3.4 nM in assay [1] and 0.6 nM in assay [2].
Take `CC(C)N(CCNC(=O)c1ccc(OCCCN2CCN(c3cccc4sccc34)CC2)cc1)C(C)C` [Example 546]: the Ki in assay [1] is 0.7 nM; in assay [2], 0.6 nM.
For `Cc1cc(=O)oc2cc(OCCCN3CCN(c4cccc5sccc45)CC3)ccc12` [Example 115], the Ki was 3.7 nM in assay [1] and 1.6 nM in assay [2].
`Cn1c(=O)oc2cc(OCCCN3CCN(c4cccc5sccc45)CC3)ccc21` [Example 1016]: the Ki in assay [1] is 2.3 nM; in assay [2], 2.2 nM.
Take `O=C(NCCCn1ccnc1)c1ccc(OCCCN2CCN(c3cccc4sccc34)CC2)cc1` [Example 650]: the figures for the Ki in assay [1] and in assay [2] were 0.6 nM and 1.2 nM, respectively.
Turning to `CCNC(=O)c1ccnc(OCCCN2CCN(c3cccc4sccc34)CC2)c1` [Example 32], the Ki in assay [1] is 1.4 nM; in assay [2], 2.5 nM.
For the molecule `NC(=O)c1csc(OCCCN2CCN(c3cccc4sccc34)CC2)n1` [Example 7, 2-[3-(4-benzo[b]thiophen-4-yl-piperazin-1-yl)propoxy]thiazole-4-carboxamide], the Ki is 2.9 nM in assay [1] and 0.8 nM in assay [2].
For the molecule `CCN(CC)CCc1ccc(OCCCN2CCN(c3cccc4sccc34)CC2)cc1` [Example 368], the Ki is 0.7 nM in assay [1] and 0.4 nM in assay [2].
`COc1cc(N2CCN(C(C)=O)CC2)cc(CO)c1OCCCN1CCN(c2cccc3sccc23)CC1` [Example 1084]: the values for the Ki in assay [1] and in assay [2] were 1.4 nM and 0.1 nM, respectively.
For the molecule `O=C1Nc2cc(OCCCCN3CCN(c4cccc5sccc45)CC3)ccc2CO1` [Example 133], the results for the Ki in assay [1] and in assay [2] were 4.7 nM and 0.3 nM, respectively.
In the case of `CCNC(=O)c1ccc(OCCCN2CCN(c3cccc4sccc34)CC2)nc1` [Example 26], the values for the Ki in assay [1] and in assay [2] were 0.8 nM and 2.6 nM, respectively.
`Cn1cnc2ccc(OCCCN3CCN(c4cccc5sccc45)CC3)cc2c1=O` [Example 95]: the Ki in assay [1] was 2.3 nM; in assay [2], 1.9 nM.
For the molecule `CCN(C)Cc1ccc(OCCCN2CCN(c3cccc4sccc34)CC2)c(C)c1` [Example 307], the Ki in assay [1] is 0.7 nM; in assay [2] it was 0.3 nM.
Take `CNC(=O)c1ccc(OC)c(OCCCN2CCN(c3cccc4sccc34)CC2)c1` [Example 281]: the Ki in assay [1] is 0.6 nM; in assay [2], 0.3 nM.
With `O=C1NCc2ccc(OCCCCN3CCN(c4cccc5sccc45)CC3)cc2N1` [Example 146], the Ki in assay [1] is 2.4 nM; in assay [2], 0.1 nM.
For `O=C(c1ccc(OCCCN2CCN(c3cccc4sccc34)CC2)cc1)N1CCN(c2ccncc2)CC1` [Example 706], the Ki was 0.9 nM in assay [1] and 1 nM in assay [2].
In the case of `CN(C)CCc1ccc(OCCCN2CCN(c3cccc4sccc34)CC2)cc1` [Example 382], the Ki in assay [1] was 0.6 nM; in assay [2] it was 0.5 nM.
In the case of `CCS(=O)(=O)Nc1ccc(OCCCN2CCN(c3cccc4sccc34)CC2)cc1` [Example 345], the figures for the Ki in assay [1] and in assay [2] were 1.9 nM and 1.6 nM, respectively.
`CN1Cc2ccc(OCCCN3CCN(c4cccc5sccc45)CC3)cc2C1=O` [Example 123]: the Ki is 1.4 nM in assay [1] and 0.7 nM in assay [2].
For `COc1cc(N2CCCC2=O)cc(CO)c1OCCCN1CCN(c2cccc3sccc23)CC1` [Example 359], in that order: 1.1 nM and 0.2 nM.
Turning to `COc1cc(N2CCOC2=O)cc(C)c1OCCCN1CCN(c2cccc3sccc23)CC1` [Example 358], the Ki in assay [1] is 1.1 nM; in assay [2] it was 0.2 nM.
Regarding `O=c1[nH]c2ccc(OCCCN3CCN(c4cccc5sccc45)CC3)cc2[nH]1` [Example 112], the values for the inhibitory constant (Ki) in assay [1] and in assay [2] were 0.7 nM and 1 nM, respectively.
Take `CC(=O)Nc1ccc(OCCCN2CCN(c3cccc4sccc34)CC2)cc1` [Example 343]: the figures for the Ki in assay [1] and in assay [2] were 0.5 nM and 0.9 nM, respectively.
For `CCNC(=O)c1cc(OCCCN2CCN(c3cccc4sccc34)CC2)no1` [Example 72], in that order: 3.4 nM and 3.4 nM.
On to `Cn1cnc2cc(OCCCN3CCN(c4cccc5sccc45)CC3)ccc21` [Example 121], for which the Ki in assay [1] was 1.5 nM; in assay [2] it was 1.1 nM.
Turning to `CN1CC(=O)N(C)c2ccc(OCCCN3CCN(c4cccc5sccc45)CC3)cc2C1=O` [Example 1034], the values for the Ki in assay [1] and in assay [2] were 3.1 nM and 2.1 nM, respectively.
Consider `O=C1CCc2ccc(OCCCN3CCN(c4cccc5sccc45)CC3)cc21` [Example 125], for which the Ki was 3.9 nM in assay [1] and 2 nM in assay [2].
As to `CC1Oc2ccc(OCCCCN3CCN(c4cccc5sccc45)CC3)cc2NC1=O` (centres unmarked) [Example 144], the Ki in assay [1] was 1.4 nM; in assay [2], 0.4 nM.
For `CC1(C)C(=O)Nc2ccc(OCCCN3CCN(c4cccc5sccc45)CC3)cc21` [Example 1014] the same measures were 4.2 nM and 3.3 nM.
With `c1cc(N2CCN(CCCOc3ccc(CN4CCOCC4)cc3)CC2)c2ccsc2c1` [Example 313], the results for the Ki in assay [1] and in assay [2] were 1.1 nM and 0.7 nM, respectively.
In the case of `O=C1CCOc2cc(OCCCN3CCN(c4cccc5sccc45)CC3)ccc2N1` [Example 1027], the Ki was 2 nM in assay [1] and 1.9 nM in assay [2].
Consider `O=C1CCCc2ccc(OCCCN3CCN(c4cccc5sccc45)CC3)cc2N1` [Example 1026], for which the Ki in assay [1] was 3.5 nM; in assay [2] it was 1.9 nM.
In the case of `Cn1nc(C(N)=O)cc1OCCCN1CCN(c2cccc3sccc23)CC1` [Example 4, 5-[3-(4-benzo[b]thiophen-4-yl-piperazin-1-yl)propoxy]-1-methyl-1H-pyrazole-3-carboxamide], the results for the Ki in assay [1] and in assay [2] were 7.7 nM and 1.9 nM, respectively.
For `CN(C)Cc1ccc(OCCCN2CCN(c3cccc4sccc34)CC2)c(Cl)c1` [Example 303] the same measures were 2.5 nM and 1 nM.
For `CCN(CC)CCNC(=O)c1ccc(OCCCN2CCN(c3cccc4sccc34)CC2)cc1` [Example 160], in that order: 0.6 nM and 0.4 nM.
Turning to `COc1cc(NC=O)cc(C)c1OCCCN1CCN(c2cccc3sccc23)CC1` [Example 354], the Ki is 0.6 nM in assay [1] and 0.2 nM in assay [2].
Regarding `COC(=O)Nc1ccc(OCCCN2CCN(c3cccc4sccc34)CC2)c(F)c1` [Example 363], the Ki is 1.1 nM in assay [1] and 2 nM in assay [2].
Turning to `O=C1Cc2ccc(OCCCCN3CCN(c4cccc5sccc45)CC3)cc2N1` [Example 127], the results for the Ki in assay [1] and in assay [2] were 2.4 nM and 0.4 nM, respectively.
Regarding `CNC(=O)c1cc(OCCCN2CCN(c3cccc4sccc34)CC2)ncn1` [Example 58], the Ki is 4.9 nM in assay [1] and 2 nM in assay [2].
With `CCNCc1ccc(OCCCN2CCN(c3cccc4sccc34)CC2)cc1` [Example 286], the Ki is 0.8 nM in assay [1] and 0.2 nM in assay [2].
